Experimental data from ChEMBL document CHEMBL5727145, “Aminoindane-, aminotetrahydronaphthalene- and aminobenzocyclobutane-derived PRMT5-inhibitors” (2018).

Target: Protein arginine N-methyltransferase 5 (Homo sapiens, UniProt O14744)
Assay: iochemical Assay: Compounds of the invention may be tested for in vitro activity in the following assay: A histone H4 derived peptide is used as substrate (amino acid sequence: […]NH2). Full-length PRMT5 enzyme (NCBI Reference sequence NP-006100.2) was co-expressed with Hiss-MEP50 in insect cells and purified via Nickel immobilized metal affinity and gel filtration chromatograph.The 6 μL assay reactions are run in Greiner brand black 384-well low volume plates. All reactions contained assay buffer (phosphate buffered saline, 0.01% (v/v) Tween-20, 0.01% (w/v) albumin from chicken egg white, 1 mM dithiothreitol, 200 nM peptide substrate, 1 μM S-Adenosyl methionine, and 15 ng/reaction enzyme, with the enzyme being omitted from negative control reactions. Compounds were added in a volume of 100 nL from dilution series prepared in DMSO, positive and negative control reactions receiving the same volume DMSO without compound. The plates were sealed with adhesive seals and incubated for 4 hours at 37° C. Reaction progress was measured using the Transcreener™ EPIGEN methyltransferase assay (BellBrook Labs, Madison, Wis.) as recommended by the manufacturer. To each reaction 2 μL detection mix were added, containing coupling enzymes, fluorescence polarisation tracer, and AMP antibody. […]

Sequence of Protein arginine N-methyltransferase 5 (O14744 whole entry): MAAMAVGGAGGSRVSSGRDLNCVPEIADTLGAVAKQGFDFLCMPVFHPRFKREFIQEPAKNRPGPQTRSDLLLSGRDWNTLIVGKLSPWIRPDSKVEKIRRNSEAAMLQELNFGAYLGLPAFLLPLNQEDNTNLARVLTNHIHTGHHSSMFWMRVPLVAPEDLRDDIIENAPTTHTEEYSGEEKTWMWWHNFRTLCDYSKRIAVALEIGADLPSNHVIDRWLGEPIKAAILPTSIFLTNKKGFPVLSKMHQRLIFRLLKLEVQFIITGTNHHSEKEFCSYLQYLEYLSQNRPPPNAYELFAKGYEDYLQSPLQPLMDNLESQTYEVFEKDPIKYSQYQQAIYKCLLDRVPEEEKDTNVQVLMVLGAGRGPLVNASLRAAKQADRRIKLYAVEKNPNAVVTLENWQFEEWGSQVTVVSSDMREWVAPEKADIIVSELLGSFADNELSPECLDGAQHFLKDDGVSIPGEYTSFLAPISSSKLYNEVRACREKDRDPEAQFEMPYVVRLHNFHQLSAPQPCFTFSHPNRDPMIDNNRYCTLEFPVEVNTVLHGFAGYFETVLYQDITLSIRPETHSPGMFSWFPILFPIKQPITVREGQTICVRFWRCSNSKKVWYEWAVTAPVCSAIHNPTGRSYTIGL

Row | SMILES | IC50 [µM]
1 | CNC(=O)c1cccc(C(=O)NC[C@@H](O)CNC2Cc3ccccc3C2)c1 | 31.4
2 | COc1ccc(-c2cc(C(=O)NC[C@H](O)CNC3Cc4ccccc4C3)on2)cc1 | 2.45
